From patent publication US4927826A, “Cycloproylpropenamides useful as platelet activing factor (PAF) antagonists” (Hoffman-La Roche Inc., priority 1988, dated 1990)

Legend:
dog platelets = assay: Binding assay: inhibition of 3H-PAF binding to dog platelets; conditions: 10 minutes at room temperature
Description: The binding assay was done in 400 μl polyethylene microcentrifuge tubes (Beckman) containing 50 μl of an oil mixture of 2 parts Siliconol AR200 (Serva): 1 part Silicone Fluid (Arthur H. Thomas). Buffer, standards, or analogs (150 μl total volume) were added to the tubes. Radiolabelled ^3 H-PAF (50 μl) was then added to the tubes. The reaction was started by the addition of 50 μl of dog platelets (2×10^7 platelets). The tubes were capped, inverted several times to mix, and incubated for 10 minutes at room temperature. The platelets were separated from the incubation mixture by centrifuging 1 minute in a Beckman Microfuge B centrifuge. The tip of the microfuge tube was cut off, and the platelets were washed out of the tip with 200 μl of 50% methanol (Burdick and Jackson). Aquasol (NEN, 10 ml) was added and the radioactivity in the samples was determined using an LS 8100 Beckman liquid scintillation counter linked to a Techtran tape recorder. Data was processed through an in-house computer system. Alternatively, radioactivity was determined using a Searle Mark III liquid scintillation counter linked to a Iso-Data microprocessor.
(b) Preparation of Platelets
Blood was collected from anesthesized or unanesthesized dogs into 50 ml plastic centrifuge tubes containing 3.8% sodium citrate as the anticoagulant (1 volume of citrate/9 volumes of blood). The red cells were removed by centrifugation for 15 minutes at 600 rpm (100-125 g) at room temperature. An aliquot of the supernatant platelet rich plasma (PRP) was saved for cell counting and the remainder was acidified by pH 6.5 with 0.15M citric acid. The platelet pellet was obtained after a 10 minute centrifugation at 2000 rpm (1000 g) at room temperature. Washed platelets were prepared by resuspending the platelet pellet once with PBS containing 1 mM EDTA, centrifuging as noted, and then resuspending the platelets in 0.1% BSA-PBS. An aliquot of the washed platelets was counted. Platelets used for binding assays were diluted to 2×10^7 platelets/assay tube (4×10^8 platelets/ml). Platelet counting was done using a Royco Cell-Crit 921.

[1] = tested on: PAF-induced Platelet Count Decrease; assay: PAF induced platelet count decrease; format: in vivo, guinea pig; conditions: for Percent Inhib. of PAF-induced Platelet Count Decrease, 3 mg/Kg i.v.: guinea pig, 15 minutes after drug injection, PAF 75 ng/kg i.v.
Description: PAF INDUCED PLATELET COUNT DECREASE
Male Hartley guinea pigs weighing between 500 and 900 grams were fed standard guinea pig chow and tap water ad libitum. PAF was solubilized in ethanol and stored as a 2 mM stock solution at -70° C. The stock solution of PAF was diluted to 1 pM in Tris buffer pH 7.4 and 0.1% BSA for all experiments.
(a) Intravenous Procedure
Guinea pigs were anesthetized with urethane (1.6 g/kg, i.p.). A catheter (PE50) was introduced into the right carotid artery for withdrawing blood. A second catheter PE10) was introduced into the jugular vein for injecting drugs and for administering the PAF challenge (75 ng/kg, i.v.). A control blood sample was obtained and platelets were counted in a whole blood platelet analyzer. PAF was then given and blood samples were taken 15, 30, and 60 seconds after the challenge for platelet counts. Fifteen minutes later, selected concentrations of the test compound were solubilized in DMSO and injected intravenously into a group of 4-6 animals. Only one concentration of antagonist was used in each animal group. Fifteen minutes after drug injection, blood samples were taken before and 15, 30, and 60 sec after the PAF challenge, and analyzed for platelet number.
Animals were anesthetized with sodium pentobarbital (35 mg/kg, i.p.) and the caritoid artery and jugular vein were cannulated as described above. The cannulae were exteriorized at the base of the neck and the animals were allowed to recover. At least 18 hours after surgery, conscious unrestrained guinea pigs were used in the experiment. The animals were challenged two time with PAF (120 ng/kg, i.v.); the first to establish a consistent response to PAF and the second to serve as a control for the PAF challenge. Blood samples were taken before and 15, 30, and 45 seconds after PAF challenge and platelets were counted. Thirty minutes after the control PAF challenge, the animal were orally dosed with either gum acacia or the test compound. Animals were then challenged with PAF at 1, 3, 5, and 24 hours after the administration of the drug.
DATA ANALYSIS AND STATISTICS
The % change, i.e., the difference in platelet number before and after PAF challenge was calculated by: [formula]
Statistical significance (p 0.05) of the difference between the mean PAF control and mean drug treated activity was determined with paried Student's t-test.

[2] = tested on: PAF-induced Bronchoconstriction; assay: PAF Induced Bronchoconstriction Assay; format: in vivo; conditions: guinea pig, ± standard error of the mean; for Percent Inhib. of PAF-induced Bronchoconstriction, 1 mg/Kg i.v.: 1 minute pretreatment, PAF 1.0 μg/kg i.v.; for Percent Inhib. of PAF-induced Bronchoconstriction, 50 mg/Kg p.o.: 2-hour pretreatment, PAF i.v.
Description: PAF Induced Bronchoconstriction Assay
Male animals (Hartlet Strain, 400-500 g) were anesthetized with urethane (2 g/kg, i.p.). Each animals' trachea was cannulated and the guinea pigs were respirated using a Harvard small animal rodent respirator (3.0 cc stroke volume, 40 breaths per min.). Tracheal pressure was recorded from a cannula inserted in the trachea and connected to a Statham Pressure Transducer.
The jugular vein was cannulated for administering compounds. Spontaneous breathing was arrested with succinylcholine (1.2 mg/kg, i.v.) administered 2 minutes prior to intravenous injection of platelet activating factor (PAF).
For, the intravenous testing, the guinea pig is given a 5-minute pretreatment with propranolol at a dose of 0.1 mg/kg intravenously. The test compound is administered with a 1 minute pretreatment prior to intravenous challenge with PAF. The animal is then challenged with a 1.0 μg/kg intravenous dose of PAF and the change is tracheal pressure is measured.
For the oral testing, the procedure includes a 2-hour pretreatment period with the test compound administered through an oral gavage tube. Propranolol or succinylcholine and PAF are administered intravenously, and the change in tracheal pressure measured.
The change is tracheal pressure is determined by subtracting the steady state baseline achieved after administration of succinylcholine from the peak bronchoconstriction seen after challenge with PAF. The mean is calculated for each test compound and compared to the mean of the control animals to give the percent inhibition of bronchoconstriction. The standard error is calculated as the standard error of the mean.

SMILES | IC50 (dog platelets) [nM] | Percent Inhib. of PAF-induced Platelet Count Decrease, 3 mg/Kg i.v. [1] [%] | Percent Inhib. of PAF-induced Bronchoconstriction, 1 mg/Kg i.v. [2] [%] | Percent Inhib. of PAF-induced Bronchoconstriction, 50 mg/Kg p.o. [2] [%] | Percent Inhib. of PAF-induced Platelet Count Decrease, 30 mg/Kg p.o. ([1]; conscious guinea pig, 30 mg/Kg p.o., PAF 120 ng/kg i.v.) [%]
O=C(/C=C/C1CC1(c1cccc(F)c1)c1cccc(F)c1)NCCCCc1cccnc1 (racemic) [[R,S-(E)]-3-[2,2-bis(3-Fluorophenyl)cyclopropyl]-N-[4-(3-pyridinyl)butyl]-2-propenamide] | 53 | 30 | 96 ± 2 | – | –
O=C(/C=C\C1CC1(c1cccc(F)c1)c1cccc(F)c1)NCCCCc1cccnc1 (racemic) [[R,S-(Z)]-3-[2,2-bis(3-Fluorophenyl)cyclopropyl]-N-[4-(3-pyridinyl)butyl]-2-propenamide] | 100 | 22 | – | 52 ± 28 | –
O=C(/C=C/[C@@H]1CC1(c1ccccc1)c1ccccc1)NCCCCc1cccnc1 [[S-(E)]-3-(2,2-Diphenylcyclopropyl)-N-[4-(3-pyridinyl)butyl]-2-propenamide] | 35 | 44 | 86 ± 7 | – | –

Now from value to molecule, other results behind:

IC50 (dog platelets) [nM] | SMILES | Percent Inhib. of PAF-induced Platelet Count Decrease, 3 mg/Kg i.v. [1] [%] | Percent Inhib. of PAF-induced Bronchoconstriction, 1 mg/Kg i.v. [2] [%] | Percent Inhib. of PAF-induced Bronchoconstriction, 50 mg/Kg p.o. [2] [%] | Percent Inhib. of PAF-induced Platelet Count Decrease, 30 mg/Kg p.o. ([1]; conscious guinea pig, 30 mg/Kg p.o., PAF 120 ng/kg i.v.) [%]
24 | O=C(/C=C/[C@@H]1CC1(c1cccc(F)c1)c1cccc(F)c1)NCCCCc1cccnc1 [[S-(E)]-3-[2,2-bis(3-Fluorophenyl)cyclopropyl]-N-[4-(3-pyridinyl)butyl]-2-propenamide] | – | 90 ± 4 | 95 ± 79 | 66
25 | O=C(/C=C/[C@@H]1CC1(c1ccc(F)cc1)c1ccc(F)cc1)NCCCCc1cccnc1 [[S-(E)]-3-[2,2-bis(4-Fluorophenyl)cyclopropyl]-N-[4-(3-pyridinyl)butyl]-2-propenamide] | – | 33 ± 7 | 62 ± 13 | –
